Results as given in US20240050526A1, “CATH2 DERIVATIVES FOR STIMULATING INNATE IMMUNE MEMORY” (priority 2020, published 2024).
Square brackets hold non-standard residues; d marks the D form. Ends that are not written are not given here.

Legend:
dTHP-1 cells = experiment: Innate immune training of dTHP-1 cells by cathelicidin peptides, cytokine ELISA after TLR agonist re-stimulation; format: cell-based, human
Method: THP-1 cells were cultured in Iscove Modified Dulbecco Media (IMDM, Gibco) containing Glutamax-I, sodium pyruvate, 10% fetal calf serum at 37° C. and 5% CO2. For differentiation to macrophage-like cells, THP-1 cells were grown in IMDM/FCS medium containing 8 of 100 nM PMA and seeded in 96 wells (5×10^4 cells/well), 24 wells (3×10^5 cells/well) or 6 wells plates (1×10^6 cells/well) during 48 h. Subsequently, dTHP-1 were washed with pre-warmed IMDM/FCS, left overnight to rest and primed during 1 to 24 h with 2-10 μM peptides of fresh IMDM/FCS medium, washed 3 times in medium. After 3 days rest cells were stimulated with various stimuli: S. minnesota LPS (10 ng/ml), E. coli LPS (10 or 50 ng/ml), Pam3CSK4 (1 μg/ml) or Pam2CSK4 (1 μg/ml). After 24 h supernatants were collected and stored at −20° C. For inhibition, dTHP-1 cells were pre-incubated for 1 h before priming and during priming with rapamycin (10 nM), AICAR (50 nM), metformin (0.3 mM), wortmannin (1 μM), ascorbate (50 μM), SB203580 (10 μM), PD98059 (10 μM), SP600125 (10 μM), EGCG (40 μM), anacardic acid (50 μM), curcumin (10 μM), garcinol (10 μM), Bay-11-7085 (10 μM), MTA (1 mM), MM-102 (25 μM), suramin (50 μM), KN-62 (3 μM), nystatin (10 μg/ml), and chlorpromazine (10 μM).
TNFα, IL-6, CXCL10 and CCL5 production were measured using ELISA (R&D systems) following instructions of the manufacturer.
Extrapolating from the trained immunity experiments with human monocytes, we examined if mature cathelicidin peptides could induce trained immunity in TH P-1 cells, a human monocyte cell line. TH P-1 cells were differentiated with 100 nM or 8 nM phorbol 12-myristate 13-acetate (PMA) during 48 h washed 3 times and, after overnight rest, primed with 2-10 μM of chicken cathelicidin 2 (CATH-2), its full D-analog DCATH-2 or human cathelicidin LL-37 for 24 h. Subsequently, dTHP-1 cells were washed 3 times and re-stimulated after a 3-day rest period with TLR agonists (24 h) (FIG. 1a). […] Priming with 5 μM of its full-D-amino acid analog DCATH-2 amplified 2- to 3-fold the TNFα and IL-6 production in response to LPS stimulation. A minor response was found for priming with 10 μM LL-37, which amplified IL-6 production 1.4-fold in 100 nM differentiated cells.

[1] = system: Salmonella enteritidis 706; experiment: Antibacterial activity (intracellular killing) of DCATH-2 primed dTHP-1 cells; format: cell-based, Salmonella enterica subsp. enterica serovar enteritidis; conditions: 24 h DCATH-2 training; colonies after 24 h
Method: Antibacterial activity was determined according to Tang et al.. dTHP-1 cells were seeded in 6 well plates and primed with DCATH-2 or medium as described. Log-phase culture of Salmonella enterica subsp. enterica serovar enteritidis 706 (Se706) was added to each well at a MOI of 1. After 2 h incubation at 37° C., cells were washed twice with warm DPBS and further incubated for 1 h incubation at 37° C. with IMDM/FCS medium containing 300 μg/ml colistin. After incubation, cells were washed 3 times in DPBS and the lysed with 1% triton X-100. Well contents were serially diluted in tryptone soy broth (Oxoid), plated on tryptone soy agar and counted after 24 h at 37° C.

avian pathogenic E. coli = conditions: prophylactic in ovo injection of chicken embryos; cited from earlier work

## rfgrflrkirrfrpkvtitiqgsarf-NH2 ([dR][dF]G[dR][dF][dL][dR][dK][dI][dR][dR][dF][dR][dP][dK][dV][dT][dI][dT][dI][dQ]G[dS][dA][dR][dF]-NH2; N-terminus assumed; SMILES CC[C@@H](C)[C@@H](NC(=O)[C@@H](CCCCN)NC(=O)[C@@H](CCCNC(=N)N)NC(=O)[C@@H](CC(C)C)NC(=O)[C@@H](Cc1ccccc1)NC(=O)[C@@H](CCCNC(=N)N)NC(=O)CNC(=O)[C@@H](Cc1ccccc1)NC(=O)[C@H](N)CCCNC(=N)N)C(=O)N[C@H](CCCNC(=N)N)C(=O)N[C@H](CCCNC(=N)N)C(=O)N[C@H](Cc1ccccc1)C(=O)N[C@H](CCCNC(=N)N)C(=O)N1CCC[C@@H]1C(=O)N[C@H](CCCCN)C(=O)N[C@@H](C(=O)N[C@@H](C(=O)N[C@@H](C(=O)N[C@@H](C(=O)N[C@@H](C(=O)N[C@H](CCC(N)=O)C(=O)NCC(=O)N[C@H](CO)C(=O)N[C@H](C)C(=O)N[C@H](CCCNC(=N)N)C(=O)N[C@H](Cc1ccccc1)C(N)=O)[C@H](C)CC)[C@H](C)O)[C@H](C)CC)[C@H](C)O)C(C)C) [DCATH-2, full D-amino acid analog of CATH-2]
dTHP-1 cells; 5 μM, re-stimulation with E. coli O111:B4 LPS, Pam3CSK4 or Pam2CSK4
  TNFα and IL-6 production after re-stimulation with TLR2 and TLR4 ligands: amplified
dTHP-1 cells; 5 μM, re-stimulation with TLR2 and TLR4 agonists
  production of CCL5 and CXCL10: not altered
dTHP-1 cells; 24 h priming (2.5-5 μM DCATH-2), 3 days rest, no re-stimulation
  basal production levels of TNFα and IL-6: not altered
dTHP-1 cells; TNFα amplification, re-stimulation with 1 μg/ml Pam3CSK4
  priming time reaching highest level of training: 24 h
[1]
  inhibition of outgrowth of Salmonella enteritidis vs non-primed dTHP-1 cells: 78±11%
Avian pathogenic E. coli
  colibacilossis-associated mortality and morbidity: considerably reduced
